The results in this text go back to US10030047B2 (Hoffmann-La Roche Inc., priority 2015, dated 2018).

Usually MIC stands for the least concentration at which growth counts as inhibited.

Values after ≈ are worked out from the molar mass of the structure shown.

This test has as its system A. baumannii strain ATCC19606. Kind of test: Minimum inhibitory concentration (MIC) determination, microbroth dilution (CLSI). It counts as cell-based. The note with it: Acinetobacter baumannii; A. baumannii ATCC19606; CAMHB; read after 20 hours; >=80% growth inhibition; read-out: ATCC19606 MIC. Put shortly:
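CLSI broth microdilution in cation-adjusted Mueller Hinton broth with twofold compound dilutions and ~5×10^5 CFU/ml inoculum, incubated at 35±2 °C. MIC read after 20 h as lowest concentration inhibiting ≥80% of growth, by eye and OD 600 nm.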
With `Cc1cc(-c2cc(Cl)c3c(c2)CNC(=O)[C@H](Cc2c[nH]c4ccccc24)N(C)C(=O)[C@H](CCCCN)NC(=O)[C@H](CCCN)NCc2cccnc2S3)ccn1` [Example 105, (11S,14S,17S)-14-(4-Amino-butyl)-11-(3-amino-propyl)-25-chloro-17-(1H-indol-3-ylmethyl)-16-methyl-23-(2-methyl-pyridin-4-yl)-2-thia-4,10,13,16,19-pentaaza-tricyclo[19.4.0.0*3,8*]pentacosa-1(25),3,5,7,21,23-hexaene-12,15,18-trione], the MIC is 1 µg/mL (≈ 1.26 µM).
For `C[C@H](O)[C@@H]1NCc2cccnc2Sc2c(Cl)cc(Cl)cc2CNC(=O)[C@H](Cc2c[nH]c3ccccc23)N(C)C(=O)[C@H](CCCCN)NC1=O` [Example 106, (11S,14S,17S)-14-(4-Amino-butyl)-23,25-dichloro-11-((S)-1-hydroxy-ethyl)-17-(1H-indol-3-ylmethyl)-16-methyl-2-thia-4,10,13,16,19-pentaaza-tricyclo[19.4.0.0*3,8*]pentacosa-1(25),3,5,7,21,23-hexaene-12,15,18-trione] the value was 2 µg/mL (≈ 2.75 µM); for `CN1C(=O)[C@H](CCCCN)NC(=O)C(C)(C)NCc2cccnc2Sc2c(Cl)cc(Cl)cc2CNC(=O)[C@@H]1Cc1c[nH]c2ccccc12` [Example 107, (14S,17S)-14-(4-Amino-butyl)-23,25-dichloro-17-(1H-indol-3-ylmethyl)-11,11,16-trimethyl-2-thia-4,10,13,16,19-pentaaza-tricyclo[19.4.0.0*3,8*]pentacosa-1(25),3,5,7,21,23-hexaene-12,15,18-trione], 8 µg/mL (≈ 11.3 µM).
As to `CN1C(=O)[C@H](CCCCN)NC(=O)[C@H](Cc2ccc3ccccc3c2)NCc2cccnc2Sc2c(Cl)cc(Cl)cc2CNC(=O)[C@@H]1Cc1c[nH]c2ccccc12` [Example 108, (11S,14S,17S)-14-(4-Amino-butyl)-23,25-dichloro-17-(1H-indol-3-ylmethyl)-16-methyl-11-naphthalen-2-ylmethyl-2-thia-4,10,13,16,19-pentaaza-tricyclo[19.4.0.0*3,8*]pentacosa-1(25),3,5,7,21,23-hexaene-12,15,18-trione], the minimal inhibitory concentration (MIC) stood at 16 µg/mL (≈ 19.4 µM).
On to `CN1C(=O)[C@H](CCCCN)NC(=O)[C@H](CCCN)NCc2cccnc2Sc2c(Cl)cc(-c3ccc(N)nc3)cc2CNC(=O)[C@@H]1Cc1c[nH]c2ccccc12` [Example 109, (11S,14S,17S)-14-(4-Amino-butyl)-11-(3-amino-propyl)-23-(6-amino-pyridin-3-yl)-25-chloro-17-(1H-indol-3-ylmethyl)-16-methyl-2-thia-4,10,13,16,19-pentaaza-tricyclo[19.4.0.0*3,8*]pentacosa-1(25),3(8),4,6,21,23-hexaene-12,15,18-trione], for which the MIC was found to be 2 µg/mL (≈ 2.51 µM).
For `CN1C(=O)[C@H](CCCCN)NC(=O)[C@H](CCCN)NCc2nccnc2Sc2c(Cl)ccc(Cl)c2CNC(=O)[C@@H]1Cc1c[nH]c2ccccc12` [Example 110, (11S,14S,17S)-14-(4-Amino-butyl)-11-(3-amino-propyl)-22,25-dichloro-17-(1H-indol-3-ylmethyl)-16-methyl-2-thia-4,7,10,13,16,19-hexaaza-tricyclo[19.4.0.0*3,8*]pentacosa-1(25),3,5,7,21,23-hexaene-12,15,18-trione] the value was 0.5 µg/mL (≈ 0.675 µM); for `CN1C(=O)[C@H](CCCCN)NC(=O)[C@H](CCCN)NCc2ncccc2Sc2c(Cl)ccc(C(F)(F)F)c2CNC(=O)[C@@H]1Cc1c[nH]c2ccccc12` [Example 111, (11S,14S,17S)-14-(4-Amino-butyl)-11-(3-amino-propyl)-25-chloro-17-(1H-indol-3-ylmethyl)-16-methyl-22-trifluoromethyl-2-thia-7,10,13,16,19-pentaaza-tricyclo[19.4.0.0*3,8*]pentacosa-1(25),3(8),4,6,21,23-hexaene-12,15,18-trione], 1 µg/mL (≈ 1.29 µM); for `CN1C(=O)[C@H](CCCCN)NC(=O)[C@H](CCCN)NCc2ncccc2Sc2c(Cl)cc(C(F)(F)F)cc2CNC(=O)[C@@H]1Cc1c[nH]c2ccccc12` [Example 112, (11S,14S,17S)-14-(4-Amino-butyl)-11-(3-amino-propyl)-25-chloro-17-(1H-indol-3-ylmethyl)-16-methyl-23-trifluoromethyl-2-thia-7,10,13,16,19-pentaaza-tricyclo[19.4.0.0*3,8*]pentacosa-1(25),3,5,7,21,23-hexaene-12,15,18-trione], 0.5 µg/mL (≈ 0.647 µM).
As for `CN1C(=O)[C@H](CCCCN)NC(=O)[C@H](CCCN)NCc2ccccc2Sc2c(ccnc2Cl)CNC(=O)[C@@H]1Cc1c[nH]c2ccccc12` [Example 113, (12S,15S,18S)-15-(4-Amino-butyl)-18-(3-amino-propyl)-4-chloro-12-(1H-indol-3-ylmethyl)-13-methyl-2-thia-5,10,13,16,19-pentaaza-tricyclo[19.4.0.0*3,8*]pentacosa-1(25),3,5,7,21,23-hexaene-11,14,17-trione], the minimum inhibitory concentration (MIC) was 2 µg/mL (≈ 2.84 µM).
For `CN1C(=O)[C@H](CCCCN)NC(=O)[C@H](Cc2cccc3ccccc23)NCc2cccnc2Sc2c(Cl)cc(Cl)cc2CNC(=O)[C@@H]1Cc1c[nH]c2ccccc12` [Example 114, (11S,14S,17S)-14-(4-Amino-butyl)-23,25-dichloro-17-(1H-indol-3-ylmethyl)-16-methyl-11-naphthalen-1-ylmethyl-2-2-thia-4,10,13,16,19-pentaaza-tricyclo[19.4.0.0*3,8*]pentacosa-1(25),3,5,7,21,23-hexaene-12,15,18-trione] the value was 32 µg/mL (≈ 38.9 µM); for `CN1CCN(c2cc(-c3cc(Cl)c4c(c3)CNC(=O)[C@H](Cc3c[nH]c5ccccc35)N(C)C(=O)[C@H](CCCCN)NC(=O)[C@H](CCCN)NCc3cccnc3S4)ccn2)CC1` [Example 115, (11S,14S,17S)-14-(4-Amino-butyl)-11-(3-amino-propyl)-25-chloro-17-(1H-indol-3-ylmethyl)-16-methyl-23-[2-(4-methyl-piperazin-1-yl)-pyridin-4-yl]-2-thia-4,10,13,16,19-pentaaza-tricyclo[19.4.0.0*3,8*]pentacosa-1(25),3,5,7,21,23-hexaene-12,15,18-trione], 2 µg/mL (≈ 2.27 µM).
`CN1C(=O)[C@H](CCCCN)NC(=O)[C@H](CCCN)NCc2cccnc2Sc2c(Cl)cc(B(O)O)cc2CNC(=O)[C@@H]1Cc1c[nH]c2ccccc12` [Example 116, {(7S,10S,13S)-10-(4-aminobutyl)-7-(3-aminopropyl)-20-chloro-13-[(1H-indol-3-yl)methyl]-12-methyl-8,11,14-trioxo-5,6,7,8,9,10,11,12,13,14,15,16-dodecahydropyrido[2,3-b][1,5,8,11,14]benzothiatetraazacycloheptadecin-18-yl}boronic acid]: the MIC came to 8 µg/mL (≈ 10.7 µM).
On to `CN1C(=O)[C@H](CCCCN)NC(=O)[C@H](COCCN)NCc2cccnc2Sc2c(Cl)ccc(C(F)(F)F)c2CNC(=O)[C@@H]1Cc1c[nH]c2ccccc12` [Example 118, (11S,14S,17S)-14-(4-Amino-butyl)-11-(2-amino-ethoxymethyl)-25-chloro-17-(1H-indol-3-ylmethyl)-16-methyl-22-trifluoromethyl-2-thia-4,10,13,16,19-pentaaza-tricyclo[19.4.0.0*3,8*]pentacosa-1(25),3,5,7,21,23-hexaene-12,15,18-trione], for which the MIC is 0.5 µg/mL (≈ 0.633 µM).
For `CN1C(=O)[C@H](COCCN)NC(=O)[C@H](COCCN)NCc2cccnc2Sc2c(Cl)ccc(C(F)(F)F)c2CNC(=O)[C@@H]1Cc1c[nH]c2ccccc12` [Example 119, (11S,14S,17S)-11,14-Bis-(2-amino-ethoxymethyl)-25-chloro-17-(1H-indol-3-ylmethyl)-16-methyl-22-trifluoromethyl-2-thia-4,10,13,16,19-pentaaza-tricyclo[19.4.0.0*3,8*]pentacosa-1(25),3,5,7,21,23-hexaene-12,15,18-trione] the value was 4 µg/mL (≈ 5.05 µM); for `CN1C(=O)[C@H](COCCN)NC(=O)[C@H](CCCN)NCc2cccnc2Sc2c(Cl)ccc(C(F)(F)F)c2CNC(=O)[C@@H]1Cc1c[nH]c2ccccc12` [Example 120, (11S,14S,17S)-14-(2-Amino-ethoxymethyl)-11-(3-amino-propyl)-25-chloro-17-(1H-indol-3-ylmethyl)-16-methyl-22-trifluoromethyl-2-thia-4,10,13,16,19-pentaaza-tricyclo[19.4.0.0*3,8*]pentacosa-1(25),3,5,7,21,23-hexaene-12,15,18-trione], 0.5 µg/mL (≈ 0.645 µM); for `CN1C(=O)[C@H](CCCCN)NC(=O)[C@H](CCC(N)=O)NCc2cccnc2Sc2c(Cl)ccc(Cl)c2CNC(=O)[C@@H]1Cc1c[nH]c2ccccc12` [Example 121, 3-[(11S,14S,17S)-14-(4-Amino-butyl)-22,25-dichloro-17-(1H-indol-3-ylmethyl)-16-methyl-12,15,18-trioxo-2-thia-4,10,13,16,19-pentaaza-tricyclo[19.4.0.0*3,8*]pentacosa-1(25),3,5,7,21,23-hexaen-11-yl]-propionamide], 2 µg/mL (≈ 2.65 µM).
Turning to `CN1C(=O)[C@H](CCCCN)NC(=O)[C@H](CCCN)NCc2ccncc2Sc2c(Cl)ccc(C(F)(F)F)c2CNC(=O)[C@@H]1Cc1c[nH]c2ccccc12` [Example 122, (11S,14S,17S)-14-(4-Amino-butyl)-11-(3-amino-propyl)-25-chloro-17-(1H-indol-3-ylmethyl)-16-methyl-22-trifluoromethyl-2-thia-5,10,13,16,19-pentaaza-tricyclo[19.4.0.0*3,8*]pentacosa-1(25),3,5,7,21,23-hexaene-12,15,18-trione], the MIC was determined as 1 µg/mL (≈ 1.29 µM).
The value for `CN1C(=O)[C@H](CCCCN)NC(=O)[C@H](CCCN)NCc2ccncc2Sc2c(Cl)cc(C(F)(F)F)cc2CNC(=O)[C@@H]1Cc1c[nH]c2ccccc12` [Example 123, (11S,14S,17S)-14-(4-Amino-butyl)-11-(3-amino-propyl)-25-chloro-17-(1H-indol-3-ylmethyl)-16-methyl-23-trifluoromethyl-2-thia-5,10,13,16,19-pentaaza-tricyclo[19.4.0.0*3,8*]pentacosa-1(25),3,5,7,21,23-hexaene-12,15,18-trione] was 1 µg/mL (≈ 1.29 µM).
